One experiment deals with hNAMPT protein (Homo sapiens (Human), UniProt P43490). Put plainly: NAMPT enzyme assay (TR-FRET/HTRF, BodiPY ligand, anti 6His-Tb). Particulars: for IC50: NAMPT IC50 range class, read-out: IC50; for inhibition at 1 µM: compound concentration 1 μM, read-out: Percent Inhibition. In kind it is binding. The source says: As discussed above, the invention provides compounds that are useful as inhibitors of the enzyme NAMPT. The NAMPT inhibition of a compound of the invention can be measured using a variety of methods known in the art. For example, the ability of a compound of the invention to inhibit NAMPT enzyme activity can be measured using a homogeneous time resolved fluorescence (HTRF) assay using hNAMPT protein and anti 6His-Tb in buffer treated with a compound of the invention (or control e.g., DMSO) and BodiPY ligand. The TR-FRET signal can be measured using a high throughput microplate reader (e.g., Pherastar). Excitation can be carried out at 320 nm. The percent inhibition value at a single concentration of compound of the invention can be calculated relative to a control treated sample. A concentration response curve can be generated for each compound of the invention and the curve fitted to generate an IC50 value. […] Cat. No. […] To this solution is added test compounds or vehicle control (DMSO) and BodiPY ligand (structure below). The plate is shaken for 1-2 min, sealed and incubated for 1 hour at rt in the dark. The TR-FRET signal is measured using BMG Pherastar (Lanthascreen protocol on BMG Pherastar). Excitation was carried out at 320 nm, and the ratio of emission of BodiPY (520 nm) to terbium (486 nm) was determined. Concentration response curves are generated by calculating the excitation increase in test compound-treated samples relative to DMSO-treated controls. For the assay method described above, test compound percent inhibition values at a single concentration are calculated relative to control (DMSO) treated samples. Compound concentration response curves are fitted to generate IC50 values from those curves. One skilled in the art will appreciate that these values generated either as percentage inhibition at a single concentration or IC50 values are subject to experimental variation.
Sequence of hNAMPT protein (P43490 whole entry): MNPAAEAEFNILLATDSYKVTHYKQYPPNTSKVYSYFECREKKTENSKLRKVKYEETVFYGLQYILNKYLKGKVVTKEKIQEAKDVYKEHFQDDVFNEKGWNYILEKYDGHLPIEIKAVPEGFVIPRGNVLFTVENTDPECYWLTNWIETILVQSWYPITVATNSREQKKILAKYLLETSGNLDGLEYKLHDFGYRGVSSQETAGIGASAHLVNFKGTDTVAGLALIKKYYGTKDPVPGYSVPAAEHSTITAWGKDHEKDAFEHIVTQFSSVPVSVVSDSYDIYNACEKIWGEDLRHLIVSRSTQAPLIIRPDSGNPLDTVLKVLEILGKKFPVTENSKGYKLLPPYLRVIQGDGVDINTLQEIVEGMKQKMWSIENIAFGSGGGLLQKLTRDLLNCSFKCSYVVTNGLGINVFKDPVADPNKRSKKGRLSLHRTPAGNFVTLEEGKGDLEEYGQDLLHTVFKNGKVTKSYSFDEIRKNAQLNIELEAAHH

The subject of the next experiment is PC3 cells. Put plainly: PC3 growth inhibition (Cell-titer glo, 72 hours). In kind it is cell-based. Particulars: Homo sapiens, PC-3, PC3 cells, 72 hours, Cell-titer glo, read-out: Percent Inhibition (PC3 growth inhibition); for inhibition at 1 µM: compound concentration 1 μM; for inhibition at 1.667 µM: compound concentration 1.667 μM. Here is the method: The ability of a compound of the invention to inhibit the growth of cells can be measured using a variety of methods known in the art. For example, the ability of a compound of the invention to inhibit the growth of PC3 cells can be measured. PC3 cells can be plated and incubated overnight under CO2. For each measurement, a compound of the invention (or vehicle e.g., DMSO) can be diluted with AIM serum free medium and added to the cell plate. The cell plate can then be incubated for 72 h under CO2. Cell-titer glo solution can be added and the plates can be incubated protected from light and the amount of luminescences can be measured. Concentration response curves can be generated by calculating the luminescence increase in test compound treated samples relative to DMSO-treated controls. Percentage remaining viability values at a single concentration can be measured. Growth inhibition (GI50) or cell viability (LD50) values can be determined from those curves.
Compounds of the invention were assayed to measure PC3 growth inhibition at a concentration of 1 μM or 1.667 μM (Table 3). To measure PC3 growth inhibition, PC3 cells that were maintained in PRMI1640 growth medium (Life Technologies; Cat. No. 11875) at 37° C. under 5% CO2 are trypsinized and diluted at a density of 8×10^4 cells/ml, 25 ul per well of cells and plated in 384-well black tissue culture plate. The cells are incubated overnight at 37° C. under 5% CO2. For each measurement, a test compounds or vehicle control (DMSO) are diluted with AIM serum free medium and added to the cell plate. Incubate for 72 hours at 37° C. under 5% CO2. 25 μl Cell-titer glo solution (Promega; Cat. No. G8462) is added and the cell plates are incubated for 10 minutes protected from light. The luminescence is measured. Concentration response curves are generated by calculating the luminescence increase in test compound-treated samples relative to DMSO-treated controls. Percentage remaining viability values at a single concentration, growth inhibition (GI50) or cell viability (LD50) values are determined from those curves. One skilled in the art will appreciate that these values are subject to experimental variation.

Some results are limits rather than exact numbers.

On to `O=C(NCCCn1nnnc1S)c1ccc2nc(-c3ccc(F)cc3)c(-c3ccc(F)cc3)nc2c1` [Compound I-8, 2,3-bis(4-fluorophenyl)-N-[3-(5-sulfanyl-1H-tetrazol-1-yl)propyl]quinoxaline-6-carboxamide], for which, on hNAMPT protein, the IC50 lay within 1000 to 2000 nM and the inhibition at 1 µM came out at 43%. Besides, the inhibition at 1 µM with PC3 cells is 103%.
As to `Cc1nc(C)c(-c2nc3cc(C(=O)NCCCn4ccnc4)ccc3nc2-c2ccccc2)s1` [Compound I-9, 3-(2,4-dimethyl-1,3-thiazol-5-yl)-N-[3-(1H-imidazol-1-yl)propyl]-2-phenylquinoxaline-6-carboxamide], at hNAMPT protein, the IC50 was 1000 to 2000 nM and the inhibition at 1 µM turned out to be 36%. In the experiment with PC3 cells, the inhibition at 1 µM was 1%.
On to `NCc1nc2ccc(C(=O)NCCCn3ccnc3)cc2nc1-c1ccccc1` [Compound I-10, 2-(aminomethyl)-N-[3-(1H-imidazol-1-yl)propyl]-3-phenylquinoxaline-6-carboxamide], for which, at hNAMPT protein, the IC50 was 2000 to 10000 nM and the inhibition at 1 µM stood at 23%. In addition, in the experiment with PC3 cells, the inhibition at 1 µM is 99%.
For the compound `O=C(NCCCn1ccnc1)c1ccc2nc(N3Cc4ccccc4C3)c(-c3ccccc3)nc2c1` [Compound I-11, 2-(1,3-dihydro-2H-isoindol-2-yl)-N-[3-(1H-imidazol-1-yl)propyl]-3-phenylquinoxaline-6-carboxamide], at hNAMPT protein, the IC50 is 100 to 500 nM and the inhibition at 1 µM came to 85%. The inhibition at 1 µM with PC3 cells is -7%.
As to `COc1cccc(-c2nc3cc(C(=O)NCCCc4ncc[nH]4)ccc3nc2N2CCC(O)CC2)c1` [Compound I-12, 2-(4-hydroxypiperidin-1-yl)-N-[3-(1H-imidazol-2-yl)propyl]-3-(3-methoxyphenyl)quinoxaline-6-carboxamide], at hNAMPT protein, the IC50 is < 100 nM and the inhibition at 1 µM was > 99%. The inhibition at 1.667 µM with PC3 cells worked out at 2%.
Regarding `COc1ccccc1-c1nc2ccc(C(=O)NCCCn3ccnc3)cc2nc1-c1ccccc1` [Compound I-13, N-[3-(1H-imidazol-1-yl)propyl]-2-(2-methoxyphenyl)-3-phenylquinoxaline-6-carboxamide], on hNAMPT protein, the concentration for half-maximal inhibition (IC50) lay within 100 to 500 nM and the inhibition at 1 µM came out at 69%. The inhibition at 1 µM with PC3 cells was -6%.
For `O=C(NCCCn1ccnc1)c1ccc2nc(-c3ccccc3)c(N3CCS(=O)(=O)CC3)nc2c1` [Compound I-14, 3-(1,1-dioxidothiomorpholin-4-yl)-N-[3-(1H-imidazol-1-yl)propyl]-2-phenylquinoxaline-6-carboxamide], at hNAMPT protein, the 50% inhibitory concentration (IC50) was in the range of 2000 to 10000 nM and the inhibition at 1 µM was determined as 17%. Moreover, the inhibition at 1 µM in the experiment with PC3 cells is -3%.
Take `O=C(NCCCn1ccnc1)c1ccc2nc(-c3ccccc3)c(N3CCC4(COC4)C3)nc2c1` [Compound I-15, N-[3-(1H-imidazol-1-yl)propyl]-3-(2-oxa-6-azaspiro[3.4]oct-6-yl)-2-phenylquinoxaline-6-carboxamide]: on hNAMPT protein, the 50% inhibitory concentration (IC50) lay in the range of 2000 to 10000 nM and the inhibition at 1 µM is 15%. The inhibition at 1 µM with PC3 cells is -6%.
As to `O=C(NCc1ccc2[nH]ncc2c1)c1ccc2nc(N3CCOCC3)c(-c3ccc(F)cc3)nc2c1` [Compound I-16, 3-(4-fluorophenyl)-N-(1H-indazol-5-ylmethyl)-2-(morpholin-4-yl)quinoxaline-6-carboxamide], on hNAMPT protein, the IC50 was 100 to 500 nM and the inhibition at 1 µM was found to be 84%. Also, the inhibition at 1.667 µM in the experiment with PC3 cells is 39%.
Regarding `N#CC1CCN(c2nc3cc(C(=O)NCCCn4ccnc4)ccc3nc2-c2ccccc2)C1` (stereo not drawn) [Compound I-17, 3-(3-cyanopyrrolidin-1-yl)-N-[3-(1H-imidazol-1-yl)propyl]-2-phenylquinoxaline-6-carboxamide], at hNAMPT protein, the IC50 lay in the range of 2000 to 10000 nM and the inhibition at 1 µM stood at 19%. Further, the inhibition at 1 µM in the experiment with PC3 cells is 4%.
Turning to `O=C(NCCCc1ncc[nH]1)c1ccc2nc(N3CCC(N4CCOCC4)CC3)c(-c3ccccc3)nc2c1` [Compound I-18, N-[3-(1H-imidazol-2-yl)propyl]-2-[4-(morpholin-4-yl)piperidin-1-yl]-3-phenylquinoxaline-6-carboxamide], on hNAMPT protein, the IC50 is < 100 nM and the inhibition at 1 µM was 100%. The inhibition at 1.667 µM in the experiment with PC3 cells was determined as 2%.
As to `O=C(NCCCn1ccnc1)c1ccc2nc(-c3ccc(F)cc3)c(-c3ccc(F)cc3)nc2c1` [Compound I-19, 2,3-bis(4-fluorophenyl)-N-[3-(1H-imidazol-1-yl)propyl]quinoxaline-6-carboxamide], on hNAMPT protein, the IC50 was in the range of 100 to 500 nM and the inhibition at 1 µM came to 82%. The inhibition at 1 µM with PC3 cells was -1%.
Take `O=C(NCCc1c[nH]cn1)c1ccc2nc(-c3ccc(F)cc3)c(-c3ccc(F)cc3)nc2c1` [Compound I-20, 2,3-bis(4-fluorophenyl)-N-[2-(1H-imidazol-4-yl)ethyl]quinoxaline-6-carboxamide]: at hNAMPT protein, the 50% inhibitory concentration (IC50) was 1000 to 2000 nM and the inhibition at 1 µM was 42%. In addition, the inhibition at 1 µM in the experiment with PC3 cells came to 111%.
Take `Cn1cc2c(n1)CN(C(=O)c1ccc3nc(-c4ccc(F)cc4)c(-c4ccc(F)cc4)nc3c1)CC2` [Compound I-22, [2,3-bis(4-fluorophenyl)quinoxalin-6-yl](2-methyl-2,4,5,7-tetrahydro-6H-pyrazolo[3,4-c]pyridin-6-yl)methanone]: at hNAMPT protein, the IC50 was 1000 to 2000 nM and the inhibition at 1 µM turned out to be 41%. Also, the inhibition at 1 µM with PC3 cells came to 96%.
As to `O=C(NCCCc1ncc[nH]1)c1ccc2nc(N3CCC(N4CCOCC4)CC3)c(-c3ccc(F)cc3)nc2c1` [Compound I-23, 3-(4-fluorophenyl)-N-[3-(1H-imidazol-2-yl)propyl]-2-[4-(morpholin-4-yl)piperidin-1-yl]quinoxaline-6-carboxamide], on hNAMPT protein, the 50% inhibitory concentration (IC50) is < 100 nM and the inhibition at 1 µM stood at 100%. Moreover, in the experiment with PC3 cells, the inhibition at 1.667 µM is 2%.
With `Cc1nc(C)c(-c2nc3ccc(C(=O)NCCCn4ccnc4)cc3nc2-c2ccccc2)s1` [Compound I-24, 2-(2,4-dimethyl-1,3-thiazol-5-yl)-N-[3-(1H-imidazol-1-yl)propyl]-3-phenylquinoxaline-6-carboxamide], the IC50 at hNAMPT protein lay within 100 to 500 nM. The inhibition at 1 µM is 88% at hNAMPT protein and -8% in the experiment with PC3 cells.
`O=C(NCCCc1cccnc1)c1ccc2nc(N3CCC(O)CC3)c(-c3ccc(F)cc3)nc2c1` [Compound I-25, 3-(4-fluorophenyl)-2-(4-hydroxypiperidin-1-yl)-N-[3-(pyridin-3-yl)propyl]quinoxaline-6-carboxamide]: on hNAMPT protein, the half-inhibitory concentration (IC50) is < 100 nM and the inhibition at 1 µM worked out at 98%. Further, in the experiment with PC3 cells, the inhibition at 1.667 µM stood at 2%.
Turning to `Cc1nccn1CCNC(=O)c1ccc2nc(-c3ccc(F)cc3)c(-c3ccc(F)cc3)nc2c1` [Compound I-26, 2,3-bis(4-fluorophenyl)-N-[2-(2-methyl-1H-imidazol-1-yl)ethyl]quinoxaline-6-carboxamide], the IC50 on hNAMPT protein was in the range of 1000 to 2000 nM. Also, the inhibition at 1 µM at hNAMPT protein was 37%; in the experiment with PC3 cells it was 99%.
Consider `CC(C)(C)OC(=O)NCC1CCN(C2CCN(c3nc4ccc(C(=O)NCCCn5ccnc5)cc4nc3-c3ccccc3)CC2)CC1` [Compound I-27, tert-butyl{[1′-(6-{[3-(1H-imidazol-1-yl)propyl]carbamoyl}-3-phenylquinoxalin-2-yl)-1,4′-bipiperidin-4-yl]methyl}carbamate], for which the IC50 at hNAMPT protein was < 100 nM. Besides, the inhibition at 1 µM on hNAMPT protein is 102%; with PC3 cells, -1%.

Source of the values: patent US10144742B2 (Millennium Pharmaceuticals, Inc., priority 2014, dated 2018).
